pIC50: −log10 of the molar value.
Biological target: HIF-PH2 (EGLN1) (Homo sapiens (Human), UniProt Q9GZT9)
Assay: HIF-PH assay (14CO2 capture, peptide-dependent turnover)
Type: biochemical
Details: enzyme inhibition against HIF-PH2; peptide-dependent percent turnover
Excerpt: Ketoglutaric acid α-[1-^14C]-sodium salt, alpha-ketoglutaric acid sodium salt, and HPLC purified peptide may be obtained from commercial sources, e.g., Perkin-Elmer (Wellesley Mass.), Sigma-Aldrich, and SynPep Corp. (Dublin Calif.), respectively. […] For example, a HIF peptide for use in the HIF-PH assay is [methoxycoumarin]-[…]-amide. HIF-PH, e.g., HIF-PH2 (EGLN1), can be expressed in, e.g., insect Hi5 cells, and partially purified, e.g., through a SP ion exchange chromatography column. […] Reactions are initiated by addition of HIF-PH enzyme.
The peptide-dependent percent turnover is calculated by subtracting percent turnover in the absence of peptide from percent turnover in the presence of substrate peptide. Percent inhibition and IC50 are calculated using peptide-dependent percent turnover at given inhibitor concentrations. Calculation of IC50 values for each inhibitor is conducted using GraFit software (Erithacus Software Ltd., Surrey UK).
Representative compounds of the disclosure were analyzed using the HIF-PH assay described above.

Chain of HIF-PH2 (EGLN1) (Q9GZT9 whole entry): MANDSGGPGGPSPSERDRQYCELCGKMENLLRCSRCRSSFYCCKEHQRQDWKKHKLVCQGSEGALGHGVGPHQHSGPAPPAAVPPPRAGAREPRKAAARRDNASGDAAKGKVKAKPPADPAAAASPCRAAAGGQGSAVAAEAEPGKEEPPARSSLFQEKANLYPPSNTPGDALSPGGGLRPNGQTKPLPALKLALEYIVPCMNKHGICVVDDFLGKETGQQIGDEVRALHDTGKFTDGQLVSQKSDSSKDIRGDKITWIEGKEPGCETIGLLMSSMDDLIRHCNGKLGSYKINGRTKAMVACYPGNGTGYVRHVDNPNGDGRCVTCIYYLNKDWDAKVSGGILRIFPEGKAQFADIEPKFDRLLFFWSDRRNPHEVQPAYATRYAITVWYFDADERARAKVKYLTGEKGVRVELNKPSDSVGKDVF

Structure (SMILES) | pIC50
N#Cc1nc(C(=O)N[C@H](Cc2ccccc2)C(=O)O)c(O)c2ccn(Cc3ccccc3)c(=O)c12 [Example 51, (R)-2-[(7-Benzyl-1-cyano-4-hydroxy-8-oxo-7,8-dihydro-[2,7]naphthyridine-3-carbonyl)-amino]-3-phenyl-propionic acid] | < 3.70
CC(C)(CNC(=O)c1ncc2ccc(=O)n(Cc3ccccc3)c2c1O)C(=O)O [Example 71, 3-[(1-Benzyl-8-hydroxy-2-oxo-1,2-dihydro-[1,6]naphthyridine-7-carbonyl)-amino]-2,2-dimethyl-propionic acid] | < 3.70
CNC(=O)c1nc(C#N)c2c(cc(-c3ccccc3)c(=O)n2Cc2ccccc2)c1O [Example 41, 1-Benzyl-8-cyano-5-hydroxy-2-oxo-3-phenyl-1,2-dihydro-[1,7]naphthyridine-6-carboxylic acid methylamide] | < 3.70
CNC(=O)c1ncc2ccc(=O)n(Cc3ccccc3)c2c1O [Example 75, 1-Benzyl-8-hydroxy-2-oxo-1,2-dihydro-[1,6]naphthyridine-7-carboxylic acid methylamide] | < 3.70
CCCNC(=O)CCCNC(=O)c1nc(C#N)c2c(=O)n(Cc3ccccc3)ccc2c1O [Example 73, 7-Benzyl-1-cyano-4-hydroxy-8-oxo-7,8-dihydro-[2,7]naphthyridine-3-carboxylic acid (3-propylcarbamoyl-propyl)-amide] | < 3.70
Cc1nc(C(=O)NCCC(=O)O)c(O)c2c1ccc(=O)n2Cc1ccccc1 [Example 112, 3-[(1-Benzyl-8-hydroxy-5-methyl-2-oxo-1,2-dihydro-[1,6]naphthyridine-7-carbonyl)-amino]-propionic acid] | < 3.70
CC(C)(CNC(=O)c1nc(-c2cncc(F)c2)c2c(=O)n(Cc3ccccc3)ccc2c1O)C(=O)O [Example 88, 3-{[7-Benzyl-1-(5-fluoro-pyridin-3-yl)-4-hydroxy-8-oxo-7,8-dihydro-[2,7]naphthyridine-3-carbonyl]-amino}-2,2-dimethyl-propionic acid] | < 3.70
N#Cc1nc(C(=O)NCCS(N)(=O)=O)c(O)c2c1ccc(=O)n2Cc1ccccc1 [Example 106, 1-Benzyl-5-cyano-8-hydroxy-2-oxo-1,2-dihydro-[1,6]naphthyridine-7-carboxylic acid (2-sulfamoyl-ethyl)-amide] | < 3.70
CC(C)NC(=O)NCCNC(=O)c1ncc2c(=O)n(Cc3ccccc3)ccc2c1O [Example 89, 7-Benzyl-4-hydroxy-8-oxo-7,8-dihydro-[2,7]naphthyridine-3-carboxylic acid [2-(3-isopropyl-ureido)-ethyl]-amide] | < 3.70
COc1ccc(Cn2ccc3c(O)c(C(=O)NCc4ccc(F)cc4)ncc3c2=O)c(OC)c1 [Example 78, 7-(2,4-Dimethoxy-benzyl)-4-hydroxy-8-oxo-7,8-dihydro-[2,7]naphthyridine-3-carboxylic acid 4-fluoro-benzylamide] | < 3.70
CC(C)(CNC(=O)c1nc(C#N)c2c(=O)n(Cc3ccccc3)ccc2c1O)C(=O)O [Example 50, 3-[(7-Benzyl-1-cyano-4-hydroxy-8-oxo-7,8-dihydro-[2,7]naphthyridine-3-carbonyl)-amino]-2,2-dimethyl-propionic acid] | < 3.70

Next, values leading:

pIC50 | Structure (SMILES)
3.75 | N#Cc1nc(C(=O)NCc2ccnnc2)c(O)c2ccn(Cc3ccccc3)c(=O)c12 [Example 60, 7-Benzyl-1-cyano-4-hydroxy-8-oxo-7,8-dihydro-[2,7]naphthyridine-3-carboxylic acid (pyridazin-4-ylmethyl)-amide]
3.78 | O=C(O)CCNC(=O)c1ncc2ccc(=O)n(Cc3ccccc3)c2c1O [Example 70, 3-[(1-Benzyl-8-hydroxy-2-oxo-1,2-dihydro-[1,6]naphthyridine-7-carbonyl)-amino]-propionic acid]
3.87 | CC(=O)NCCNC(=O)c1nc(C#N)c2ccc(=O)n(Cc3ccccc3)c2c1O [Example 95, 1-Benzyl-5-cyano-8-hydroxy-2-oxo-1,2-dihydro-[1,6]naphthyridine-7-carboxylic acid (2-acetylamino-ethyl)-amide]
3.70 | O=C(O)CCCCNC(=O)c1nc(-c2cccnc2)c2c(cc(-c3ccccc3)c(=O)n2Cc2ccccc2)c1O [Example 163, 5-[(1-Benzyl-5-hydroxy-2-oxo-3-phenyl-8-pyridin-3-yl-1,2-dihydro-[1,7]naphthyridine-6-carbonyl)-amino]-pentanoic acid]
3.70 | CC(C)(CNC(=O)c1nc(-c2cccnc2)c2c(cc(-c3ccccc3)c(=O)n2Cc2ccccc2)c1O)C(=O)O [Example 191, 3-[(1-Benzyl-5-hydroxy-2-oxo-3-phenyl-8-pyridin-3-yl-1,2-dihydro-[1,7]naphthyridine-6-carbonyl)-amino]-2,2-dimethyl-propionic acid]
3.71 | N#Cc1nc(C(=O)NCc2ccncc2)c(O)c2ccn(Cc3ccccc3)c(=O)c12 [Example 48, 7-Benzyl-1-cyano-4-hydroxy-8-oxo-7,8-dihydro-[2,7]naphthyridine-3-carboxylic acid (pyridin-4-ylmethyl)-amide]
3.86 | CC(=O)NCCNC(=O)c1ncc2ccc(=O)n(Cc3ccccc3)c2c1O [Example 96, 1-Benzyl-8-hydroxy-2-oxo-1,2-dihydro-[1,6]naphthyridine-7-carboxylic acid (2-acetylamino-ethyl)-amide]
3.86 | O=C(NCc1nnn[nH]1)c1ncc2ccc(=O)n(Cc3ccccc3)c2c1O [Example 82, 1-Benzyl-8-hydroxy-2-oxo-1,2-dihydro-[1,6]naphthyridine-7-carboxylic acid (1H-tetrazol-5-ylmethyl)-amide]
3.70 | CN(CCNC(=O)c1nc(-c2ccccc2)c2c(cc(-c3ccccc3)c(=O)n2Cc2ccccc2)c1O)S(C)(=O)=O [Example 133, 1-Benzyl-5-hydroxy-2-oxo-3,8-diphenyl-1,2-dihydro-[1,7]naphthyridine-6-carboxylic acid [2-(methanesulfonyl-methyl-amino)-ethyl]amide]
3.70 | C[C@@H](c1ccccc1)n1c(=O)c(-c2ccccc2)cc2c(O)c(C(=O)NCCC(=O)O)nc(-c3cccnc3)c21 [Example 175, (S)-3-{[5-Hydroxy-2-oxo-3-phenyl-1-(1-phenyl-ethyl)-8-pyridin-3-yl-1,2-dihydro-[1,7]naphthyridine-6-carbonyl]-amino}-propionic acid]
3.71 | C[C@H](c1ccccc1)n1c(=O)c(-c2ccccc2)cc2c(O)c(C(=O)NCCC(=O)O)nc(-c3cccnc3)c21 [Example 176, (R)-3-{[5-Hydroxy-2-oxo-3-phenyl-1-(1-phenyl-ethyl)-8-pyridin-3-yl-1,2-dihydro-[1,7]naphthyridine-6-carbonyl]-amino}-propionic acid]
3.75 | Cc1ccc(-c2nc(C(=O)NCCC(=O)O)c(O)c3cc(-c4ccccc4)c(=O)n(Cc4ccccc4)c23)cn1 [Example 179, 3-{[1-Benzyl-5-hydroxy-8-(6-methyl-pyridin-3-yl)-2-oxo-3-phenyl-1,2-dihydro-[1,7]naphthyridine-6-carbonyl]-amino}-propionic acid]
3.70 | CN(CCNC(=O)c1nc(-c2cccnc2)c2c(cc(-c3ccccc3)c(=O)n2Cc2ccccc2)c1O)S(C)(=O)=O [Example 134, 1-Benzyl-5-hydroxy-2-oxo-3-phenyl-8-pyridin-3-yl-1,2-dihydro-[1,7]naphthyridine-6-carboxylic acid [2-(methanesulfonyl-methyl-amino)-ethyl]amide]

— patent US8921389B2, “Naphthyridine derivatives as inhibitors of hypoxia inducible factor (HIF) hydroxylase” (Fibrogen, Inc., priority 2011, dated 2014)
